Data published in patent US9815841B2, “Compounds” (GLAXOSMITHKLINE INTELLECTUAL PROPERTY DEVELOPMENT LIMITED, priority 2014, dated 2017).

The compounds below were run against T1, recombinant full length LRRK2 over-expressed in SH-SY5Y cells (Homo sapiens, UniProt Q5S007) (assay: Recombinant cellular LRRK2 AlphaScreen assay (LRRK2 Ser935 phosphorylation)). Conditions: SH-SY5Y cells with BacMam LRRK2, 60 minutes compound incubation, read-out: recombinant cellcular LRRK2 alphaScreen assay (pIC50) (converted).
T1 construct: A BacMam virus expressing full length recombinant LRRK2 was purchased from Invitrogen; host or cells: SH-SY5Y human neuroblastoma cells transduced with BacMam LRRK2 virus
Format: cell-based
Method: Recombinant Cellular LRRK2 AlphaScreen Assay
A BacMam virus expressing full length recombinant LRRK2 was purchased from Invitrogen and amplified by inoculation of SF-9 cells at MOI 0.3 for 4-5 days in Sf-900 III SFM medium supplemented with 3% fetal bovine serum. Infected cell cultures were then centrifuged at 2000 g for 20 minutes, viral supernatant titer determined by anti-gp64 plaque assay and stored at 4° C.
Affinity-purified anti-phospho LRRK2 Ser935 sheep polyclonal antibody (Dzamko et al., 2010, Biochem. J. 430: 405-413) was biotinylated by standard methods (PerkinElmer). Anti-LRRK2 rabbit polyclonal antibody was purchased from Novus Biologicals. AlphaScreen Protein A IgG Kit (including acceptor and donor beads) was purchased from Perkin Elmer.
SH-SY5Y cells were grown in DMEM/F12 medium with 10% dialysed fetal bovine serum and harvested by treatment with 0.5% trypsin-EDTA for 5 minutes at […] followed by centrifugation at 1000 rpm for 4 minutes. The cell pellet was resuspended in Opti-MEM reduced serum media (Invitrogen) at 200,000 cells/ml and mixed with the BacMam LRRK2 virus at MOI=50. 50 μl cell solutions were then dispensed to each well of a 384-well plate and incubated at 37° C., 5% CO2 for 24 hours.
Serial dilutions of test compounds were prepared in Opti-MEM reduced serum media (Invitrogen) and 5.6 ul transferred from compound plate to cell assay plate to achieve a top final assay concentration of 10 uM. DMSO was used in certain wells as controls. Cells were incubated at 37° C., 5% CO2 for 60 minutes. The medium was then removed and cells lysed by addition of 20 ul cell lysis buffer (Cell Signaling Technology) and incubation at 4° C. for 20 minutes. 10 ul of antibody/acceptor bead mix [(1/1000 biotinylated-pS935 LRRK2 antibody, 1/1000 total-LRRK2 antibody, 1/100 Acceptor beads in AlphaScreen detection buffer (25 mM Hepes (pH 7.4), 0.5% Triton X-100, 1 mg/ml Dextran 500 and 0.1% BSA)] was then added to each well and plates incubated for 2 hours at ambient temperature in the dark. 10 μl of donor beads solution (1/33.3 donor beads in AlphaScreen detection buffer) was then added to each well. Following incubation for a further 2 hours at ambient temperature in the dark, plates were read on an EnVision™ plate reader at emission 520-620 nm with excitation 680 nm. Dose response curve data was based on sigmoidal dose-response model.

T1 sequence (Q5S007 whole entry): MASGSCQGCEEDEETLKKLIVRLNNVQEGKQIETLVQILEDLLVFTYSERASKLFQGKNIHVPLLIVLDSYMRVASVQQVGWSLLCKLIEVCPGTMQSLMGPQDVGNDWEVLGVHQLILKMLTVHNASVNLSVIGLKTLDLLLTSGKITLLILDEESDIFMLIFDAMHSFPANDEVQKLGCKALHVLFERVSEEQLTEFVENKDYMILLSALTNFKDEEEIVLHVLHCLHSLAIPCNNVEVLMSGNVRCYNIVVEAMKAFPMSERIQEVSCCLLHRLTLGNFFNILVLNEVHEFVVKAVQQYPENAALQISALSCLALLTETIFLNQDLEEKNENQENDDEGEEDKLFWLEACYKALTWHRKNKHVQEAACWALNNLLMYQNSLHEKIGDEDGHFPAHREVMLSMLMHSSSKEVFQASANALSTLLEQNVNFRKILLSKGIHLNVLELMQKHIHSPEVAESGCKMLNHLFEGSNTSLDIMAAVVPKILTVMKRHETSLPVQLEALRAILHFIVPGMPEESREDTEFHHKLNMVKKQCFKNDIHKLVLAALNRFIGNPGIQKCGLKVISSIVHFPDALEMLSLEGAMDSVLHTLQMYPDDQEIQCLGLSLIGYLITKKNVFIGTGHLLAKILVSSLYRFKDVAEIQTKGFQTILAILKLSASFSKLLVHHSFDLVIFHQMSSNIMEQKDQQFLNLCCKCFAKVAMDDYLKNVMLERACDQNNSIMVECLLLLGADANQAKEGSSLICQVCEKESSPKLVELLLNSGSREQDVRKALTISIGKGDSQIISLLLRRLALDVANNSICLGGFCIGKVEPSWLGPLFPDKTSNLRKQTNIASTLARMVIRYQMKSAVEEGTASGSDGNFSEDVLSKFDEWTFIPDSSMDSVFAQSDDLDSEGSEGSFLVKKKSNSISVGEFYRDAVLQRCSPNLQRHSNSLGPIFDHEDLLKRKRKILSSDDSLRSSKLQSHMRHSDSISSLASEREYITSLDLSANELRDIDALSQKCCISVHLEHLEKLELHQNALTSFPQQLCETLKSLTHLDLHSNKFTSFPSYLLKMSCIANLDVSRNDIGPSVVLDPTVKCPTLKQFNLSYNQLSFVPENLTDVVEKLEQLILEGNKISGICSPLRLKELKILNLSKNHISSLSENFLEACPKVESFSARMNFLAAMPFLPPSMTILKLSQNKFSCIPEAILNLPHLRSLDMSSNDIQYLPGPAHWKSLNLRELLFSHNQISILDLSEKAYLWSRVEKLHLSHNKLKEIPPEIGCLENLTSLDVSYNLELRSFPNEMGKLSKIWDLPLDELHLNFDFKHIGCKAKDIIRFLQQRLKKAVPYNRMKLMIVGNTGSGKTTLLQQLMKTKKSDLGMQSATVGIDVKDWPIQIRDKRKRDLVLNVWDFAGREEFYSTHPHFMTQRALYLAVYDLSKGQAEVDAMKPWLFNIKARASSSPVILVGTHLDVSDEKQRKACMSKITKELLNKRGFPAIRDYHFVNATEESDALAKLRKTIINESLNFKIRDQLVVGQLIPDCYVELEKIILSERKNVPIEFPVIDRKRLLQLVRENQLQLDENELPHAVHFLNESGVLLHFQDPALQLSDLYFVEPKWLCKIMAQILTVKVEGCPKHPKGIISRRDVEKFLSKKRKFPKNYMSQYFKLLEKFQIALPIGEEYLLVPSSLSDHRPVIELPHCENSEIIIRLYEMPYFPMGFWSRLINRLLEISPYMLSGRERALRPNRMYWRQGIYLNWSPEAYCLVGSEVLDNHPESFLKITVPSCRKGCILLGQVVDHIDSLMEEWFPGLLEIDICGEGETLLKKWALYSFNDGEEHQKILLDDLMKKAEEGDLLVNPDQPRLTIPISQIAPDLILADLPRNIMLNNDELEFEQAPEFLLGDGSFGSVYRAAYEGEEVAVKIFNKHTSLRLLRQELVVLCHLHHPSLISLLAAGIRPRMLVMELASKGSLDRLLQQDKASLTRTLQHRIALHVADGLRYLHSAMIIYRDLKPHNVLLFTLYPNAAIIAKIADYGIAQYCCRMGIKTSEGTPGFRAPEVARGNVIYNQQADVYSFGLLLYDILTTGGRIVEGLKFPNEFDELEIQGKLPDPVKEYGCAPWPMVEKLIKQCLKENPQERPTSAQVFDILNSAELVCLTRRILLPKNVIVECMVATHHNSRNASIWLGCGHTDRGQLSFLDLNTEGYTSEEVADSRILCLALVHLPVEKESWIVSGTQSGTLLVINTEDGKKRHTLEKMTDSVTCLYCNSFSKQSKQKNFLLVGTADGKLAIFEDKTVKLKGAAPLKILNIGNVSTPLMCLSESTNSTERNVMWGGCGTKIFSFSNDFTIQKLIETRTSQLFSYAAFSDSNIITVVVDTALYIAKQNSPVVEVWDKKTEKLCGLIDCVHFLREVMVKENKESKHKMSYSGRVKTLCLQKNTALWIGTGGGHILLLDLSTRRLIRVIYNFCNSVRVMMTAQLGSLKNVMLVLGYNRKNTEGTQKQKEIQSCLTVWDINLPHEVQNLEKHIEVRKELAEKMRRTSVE

IC50, ≤ 100 nM:
CCOc1nc(Nc2ccc(C(=O)N3CCN(C)CC3)cc2)nc2[nH]ccc12 [Example E15, (4-((4-ethoxy-7H-pyrrolo-[2,3-d]-pyrimidin-2-yl)amino)phenyl)(4-methylpiperazin-1-yl)methanone]
CCOc1nc(Nc2ccc(C(=O)N3CCOCC3)c(OC)c2)nc2[nH]ccc12 [Example E18, (4-((4-ethoxy-7H-pyrrolo-[2,3-d]-pyrimidin-2-yl)amino)-2-methoxyphenyl)(morpholino)methanone]
CCOc1nc(Nc2ccc(C(=O)N3CCOC[C@H]3C)cc2OC)nc2[nH]ccc12 [Example E30, (R)-(4-((4-ethoxy-7H-pyrrolo[2,3-d]pyrimidin-2-yl)amino)-3-methoxyphenyl)(3-methylmorpholino)methanone]
CCOc1nc(Nc2ccc(C(=O)N3CCOCC3)cc2OC)nc2[nH]cc(C)c12 [Example E32, (4-((4-ethoxy-5-methyl-7H-pyrrolo-[2,3-d]pyrimidin-2-yl)amino)-3-methoxyphenyl)(morpholino)methanone]
COc1cc(C(=O)N2CCN(C)CC2)ccc1Nc1nc(OCC2CC2)c2cc[nH]c2n1 [Example E33, (4-((4-(cyclopropylmethoxy)-7H-pyrrolo-[2,3-d]pyrimidin-2-yl)amino)-3-methoxyphenyl)(4-methylpiperazin-1-yl) methanone]
COc1cc(C(=O)N2CCOCC2)ccc1Nc1nc(OCC2CC2)c2cc[nH]c2n1 [Example E34, (4-((4-(cyclopropylmethoxy)-7H-pyrrolo-[2,3-d]pyrimidin-2-yl)amino)-3-methoxyphenyl)(morpholino)methanone]
CCOc1nc(Nc2ccc(C(=O)N3CCOCC3)cc2OC)nc2[nH]cc(C#N)c12 [Example E59, 4-ethoxy-2-((2-methoxy-4-(morpholine-4-carbonyl)phenyl)amino)-7H-pyrrolo[2,3-d]pyrimidine-5-carbonitrile]
